# Assay results as given in patent US11964953B2, “Substituted aminothiazoles as DGKzeta inhibitors for immune activation” (Bayer Aktiengesellschaft, priority 2020, dated 2024).
# Target: human DGKζ (Homo sapiens (Human), UniProt Q13574)
# Assay: Human DGKζ kinase activity inhibition assay (ADP-Glo)
# Type: biochemical
# Conditions: in vitro human DGKζ kinase activity inhibition assay; read-out: IC50
# In short: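 ADP-Glo luminescence, reflecting ADP produced, served as the readout of activity. Full-length human DGKζ, FLAG-tagged at the C-terminus and insect-cell expressed, was used; lipid substrate mix was sonicated with octyl-β-D-glucopyranoside in 50 mM MOPS pH 7.4.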
# Chain of human DGKζ (Q13574 other isoform, or with tags, fused parts or gaps): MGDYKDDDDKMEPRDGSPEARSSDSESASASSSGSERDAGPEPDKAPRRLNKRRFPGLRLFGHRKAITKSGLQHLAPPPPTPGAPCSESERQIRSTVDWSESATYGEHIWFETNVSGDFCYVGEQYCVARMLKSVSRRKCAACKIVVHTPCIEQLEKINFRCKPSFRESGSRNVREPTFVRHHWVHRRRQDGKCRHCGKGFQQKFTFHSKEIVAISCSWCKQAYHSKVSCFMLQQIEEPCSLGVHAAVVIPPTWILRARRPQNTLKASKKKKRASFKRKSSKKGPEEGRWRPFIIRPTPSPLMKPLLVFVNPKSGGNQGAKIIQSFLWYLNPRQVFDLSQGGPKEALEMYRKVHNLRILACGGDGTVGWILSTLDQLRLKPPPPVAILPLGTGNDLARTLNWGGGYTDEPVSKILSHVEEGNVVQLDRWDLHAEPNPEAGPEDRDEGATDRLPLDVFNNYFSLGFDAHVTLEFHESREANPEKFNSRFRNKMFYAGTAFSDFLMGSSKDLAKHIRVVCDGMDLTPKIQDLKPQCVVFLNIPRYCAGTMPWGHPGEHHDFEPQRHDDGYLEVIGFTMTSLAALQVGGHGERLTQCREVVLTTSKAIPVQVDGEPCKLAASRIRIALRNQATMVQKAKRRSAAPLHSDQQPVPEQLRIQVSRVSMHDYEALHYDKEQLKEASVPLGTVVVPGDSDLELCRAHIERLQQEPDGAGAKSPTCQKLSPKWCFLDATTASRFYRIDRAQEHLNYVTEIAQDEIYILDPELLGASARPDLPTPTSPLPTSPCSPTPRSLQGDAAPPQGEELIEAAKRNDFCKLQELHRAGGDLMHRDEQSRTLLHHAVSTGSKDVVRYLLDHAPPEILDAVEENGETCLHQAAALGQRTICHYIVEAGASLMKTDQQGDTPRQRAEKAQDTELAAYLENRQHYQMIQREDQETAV
row,Compound,IC50
1,"COc1ccc(NC(=O)COc2ccc(C(=O)c3sc(N(c4ccc(F)cc4)C(C)C(N)=O)nc3N)cc2)cc1 (racemic) [Example 117, rac-2-(N-[4-amino-5-[4-[2-(4-methoxyanilino)-2-oxo-ethoxy]benzoyl]thiazol-2-yl]-4-fluoro-anilino)propanamide]",14.9 nM
2,"CCN(C)C(=O)COc1ccc(C(=O)c2sc(N(c3ccc(F)cc3)C(C)C(N)=O)nc2N)cc1 (racemic) [Example 111, rac-2-(N-[4-amino-5-[4-[2-[ethyl(methyl)amino]-2-oxo-ethoxy]benzoyl]thiazol-2-yl]-4-fluoro-anilino)propanamide]",334 nM
3,"CC(C(N)=O)N(c1cccc(F)c1)c1nc(N)c(C(=O)c2ccccc2)s1 (single isomer, unassigned) [Example 74.1, 2-(N-(4-amino-5-benzoyl-thiazol-2-yl)-3-fluoro-anilino)propanamide]",17100 nM
4,"CC(C(N)=O)N(c1ccc(F)cc1)c1nc(N)c(C(=O)c2ccc(OCc3ccccc3)cc2)s1 (single isomer, unassigned) [Example 170.1, 2-(N-[4-amino-5-(4-benzyloxybenzoyl)thiazol-2-yl]-4-fluoro-anilino)propanamide]",5 nM
5,"CC(C(N)=O)N(c1ccc(OC(F)F)c(Cl)c1)c1nc(N)c(C(=O)c2ccncc2)s1 (racemic) [Example 203, rac-2-[N-[4-amino-5-(pyridine-4-carbonyl)thiazol-2-yl]-3-chloro-4-(difluoromethoxy)anilino]propanamide]",381 nM
6,"C[C@H](C(N)=O)N(c1ccc(F)c(F)c1)c1nc(N)c(C(=O)c2ccc(OC(F)F)cc2)s1 [Example 49.2, (R)-2-(N-[4-amino-5-[4-(difluoromethoxy)benzoyl]thiazol-2-yl]-3,4-difluoro-anilino)propanamide]",2.1 nM
7,"CC(C(N)=O)N(c1ccc(F)cc1)c1nc(N)c(C(=O)c2ccc(OCC(=O)NCC(C)(C)C)cc2)s1 (racemic) [Example 141, rac-2-(N-[4-amino-5-[4-[2-(2,2-dimethylpropylamino)-2-oxo-ethoxy]benzoyl]thiazol-2-yl]-4-fluoro-anilino)propanamide]",389 nM
8,"CC(C(N)=O)N(c1ccc(F)cc1)c1nc(N)c(C(=O)c2ccc(F)c(F)c2)s1 (racemic) [Example 25, rac-2-(N-[4-amino-5-(3,4-difluorobenzoyl)thiazol-2-yl]-4-fluoro-anilino)propanamide]",101 nM
9,"Cc1cc(C(=O)c2sc(N(c3ccc(F)cc3)C(C)C(N)=O)nc2N)ccn1 (single isomer, unassigned) [Example 187.2, 2-(N-[4-amino-5-(2-methylpyridine-4-carbonyl)thiazol-2-yl]-4-fluoro-anilino)propanamide]",> 20000 nM
10,"CC(C(N)=O)N(c1ccc(C(F)F)cc1)c1nc(N)c(C(=O)c2ccc(OC(F)F)cc2)s1 (racemic) [Example 245, rac-2-[N-[4-amino-5-[4-(difluoromethoxy)benzoyl]thiazol-2-yl]-4-(difluoromethyl)anilino]propanamide]",22 nM
11,"CC(C(N)=O)N(c1ccc2c(c1)OCO2)c1nc(N)c(C(=O)c2ccccc2)s1 (racemic) [Example 196, rac-2-[(4-amino-5-benzoyl-thiazol-2-yl)-(1,3-benzodioxol-5-yl)amino]propanamide]",128 nM
12,"CC(C(N)=O)N(c1ccc2c(c1)OC(F)(F)O2)c1nc(N)c(C(=O)c2ccc(OC(F)F)cc2)s1 (racemic) [Example 214, rac-2-[[4-amino-5-[4-(difluoromethoxy)benzoyl]thiazol-2-yl]-(2,2-difluoro-1,3-benzodioxol-5-yl)amino]propanamide]",16 nM
13,"CC(C(N)=O)N(c1ccc(F)c(F)c1)c1nc(N)c(C(=O)c2cccnc2)s1 (single isomer, unassigned) [Example 184.2, 2-(N-[4-amino-5-(pyridine-3-carbonyl)thiazol-2-yl]-3,4-difluoro-anilino)propanamide]",> 20000 nM
14,"CC(C(N)=O)N(c1ccc(F)cc1)c1nc(N)c(C(=O)c2ccc(O)cc2)s1 (racemic) [Example 157, rac-2-(N-[4-amino-5-(4-hydroxybenzoyl)thiazol-2-yl]-4-fluoro-anilino)propanamide]",190 nM
15,"COc1ccc(C(=O)c2sc(N(c3ccc(F)cc3)C(C)C(N)=O)nc2N)cn1 (racemic) [Example 14, rac-2-(N-[4-amino-5-(6-methoxypyridine-3-carbonyl)thiazol-2-yl]-4-fluoro-anilino)propanamide]",334 nM
16,"COc1cccc(CNC(=O)COc2ccc(C(=O)c3sc(N(c4ccc(F)cc4)C(C)C(N)=O)nc3N)cc2)c1 (racemic) [Example 95, rac-2-(N-(4-amino-5-[4-[2-[(3-methoxyphenyl)methylamino]-2-oxo-ethoxy]benzoyl]thiazol-2-yl]-4-fluoro-anilino)propanamide]",39 nM
17,"Cc1cc(NC(=O)COc2ccc(C(=O)c3sc(N(c4ccc(F)cc4)C(C)C(N)=O)nc3N)cc2)no1 (racemic) [Example 103, rac-2-(N-[4-amino-5-[4-[2-[(5-methylisoxazol-3-yl)amino]-2-oxo-ethoxy]benzoyl]thiazol-2-yl]-4-fluoro-anilino)propanamide]",41.9 nM
18,"CC(C(N)=O)N(c1ccc(C(F)(F)F)cc1)c1nc(N)c(C(=O)c2ccc(OC(F)F)cc2)s1 (single isomer, unassigned) [Example 43.2]",5.93 nM
19,"CC(C(N)=O)N(c1nc(N)c(C(=O)c2ccccc2)s1)c1ccccc1F (racemic) [Example 75, rac-2-(N-(4-amino-5-benzoyl-thiazol-2-yl)-2-fluoro-anilino)propanamide]",419 nM
20,"CC(C(N)=O)N(c1ccc(F)cc1)c1nc(N)c(C(=O)c2ccc(OCC(=O)Nc3ncnc4[nH]ncc34)cc2)s1 (racemic) [Example 131, rac-2-(N-[4-amino-5-[4-[2-oxo-2-(1H-pyrazolo[3,4-d]pyrimidin-4-ylamino)ethoxy]benzoyl]thiazol-2-yl]-4-fluoro-anilino)propanamide]",180 nM
21,"COc1ccc(N(c2nc(N)c(C(=O)c3ccccc3)s2)C(C)C(N)=O)cc1F (racemic) [Example 191, rac-2-(N-(4-amino-5-benzoyl-thiazol-2-yl)-3-fluoro-4-methoxy-anilino)propanamide]",356 nM
22,"CC(C(N)=O)N(c1ccc(F)c(Cl)c1)c1nc(N)c(C(=O)c2ccncc2)s1 (racemic) [Example 160, rac-2-(N-[4-amino-5-(pyridine-4-carbonyl)thiazol-2-yl]-3-chloro-4-fluoro-anilino)propanamide]",187 nM
23,"Cc1ccc(N(c2nc(N)c(C(=O)c3ccccc3)s2)C(C)C(N)=O)cc1 (single isomer, unassigned) [Example 73.1, 2-(N-(4-amino-5-benzoyl-thiazol-2-yl)-4-methyl-anilino)propanamide]",3720 nM
24,"CC(C(N)=O)N(c1cccnc1)c1nc(N)c(C(=O)c2ccccc2)s1 (single isomer, unassigned) [Example 79.2, 2-[(4-amino-5-benzoyl-thiazol-2-yl)-(3-pyridyl)amino]propanamide]",2390 nM
25,"CC(C(N)=O)N(c1ccc(F)c(F)c1)c1nc(N)c(C(=O)c2ccc(O)cc2)s1 (single isomer, unassigned; enantiomer 1) [Example 287, 2-(N-[4-amino-5-(4-hydroxybenzoyl)thiazol-2-yl]-3,4-difluoro-anilino)propanamide (enantiomer 1)]",18 nM
